We go through five compounds from patent US20220168293A1, “TIME TO RESOLUTION OF AXITINIB-RELATED ADVERSE EVENTS” (PFIZER INC., priority 2020, published 2022).

Each structure is given as a SMILES string. Like-named read-outs stand apart in the source and are kept apart here.

The nature of data set [1]: Time to resolution (TTR) of AEs after treatment interruption or discontinuation, pooled cohorts. The data set is classed as in vivo, human. As for the experimental part: Five of the most common AEs associated with axitinib treatment were assessed: diarrhea; fatigue; hypertension; nausea; and palmar-plantar erythrodysesthesia syndrome (PPE). Incidences of treatment-emergent AEs were taken from the full published articles for each study. AEs were classified and graded per the Common Terminology Criteria for Adverse Events version 3.0 or the National Cancer Institute Common Terminology Criteria for Adverse Events version 4.03, as used in each individual study. Incidences of AEs were reported for any grade and for grade ≥3.

The conditions of data set [2]: cited from earlier work.
Data set [3] is described as follows: Action taken for each occurrence of each AE by pooled treatment cohort. As to conditions: occurrences of the AE.
Protocol: To determine the TTR for each of the AEs, data were pooled for different treatment cohorts as follows: patients who received axitinib monotherapy (axitinib monotherapy cohort); patients who received axitinib in combination with IO therapy (axitinib+10 cohort); and patients in comparator treatment arms who received another TKI as monotherapy, i.e., sorafenib or sunitinib (other TKI cohort). TTR was calculated for all causality, treatment-emergent AEs. For each AE reported for patients in each pooled cohort, the action taken on presentation of the AE was documented. […] TTR was determined for AEs of any grade and for grade Data were descriptive only; no statistical comparisons were made.
Action taken was determined as ‘not applicable’ when the associated drug was already permanently discontinued when the AE occurred.
Where [4] appears, read: AEs of any grade, after treatment interruption or discontinuation.
Where [5] appears, read: AEs of grade 3 or higher (FIG. 2).
The mark [6] stands for this setting: drug already permanently discontinued.

The half-life is the time needed for the level to fall by half in the phase considered. With `CNC(=O)c1ccccc1Sc1ccc2c(/C=C/c3ccccn3)n[nH]c2c1` [Axitinib, axitinib], in data set [1] (setting [4]), the “median (IQR) TTR, PPE” value is recorded as 3 (3-5) days; the “median (IQR) TTR, diarrhea” value was 3 (1-6) days; the “median (IQR) TTR, hypertension” value is on record as 1 (1-3) days; the “median (IQR) TTR, nausea” value was 3 (1-7) days. Besides, in data set [1] (AEs of any grade, after treatment interruption or discontinuation, listed as INLYTA monotherapy), the “median (IQR) TTR, fatigue” value was 8 days. The “median (IQR) TTR, fatigue” value in data set [1] (AEs of any grade, after treatment interruption or discontinuation, listed as axitinib monotherapy) was 8 (4-16) days. Also, in data set [1] (setting [5]), the “median (IQR) TTR, PPE” value is given as 3 (1-6) days; the “median (IQR) TTR, diarrhea” value was 3 (2-6) days; the “median (IQR) TTR, hypertension” value is recorded as 2 (1-8) days; the “median (IQR) TTR, nausea” value is 4 (2-15) days. Also, in data set [1] (AEs of grade 3 or higher (FIG. 2), listed as INLYTA monotherapy), the “median (IQR) TTR, fatigue” value worked out at 8 days. Moreover, the “median (IQR) TTR, fatigue” value in data set [1] (AEs of grade 3 or higher (FIG. 2), listed as axitinib monotherapy) was 8 (5-16) days. Also, the “Median TTR for adverse reactions, except for fatigue (range of medians)” value in data set [1] (all grade) was in the range of 1 to 3 days. The “Median TTR for adverse reactions, except for fatigue (range of medians)” value in data set [1] (grade 3 or higher) fell in the range of 2 to 4 days. Further, the half-life in data set [2] (after a single 5 mg dose) is 2.5 to 6.1 h. In data set [3], the “Diarrhea, action taken: Stopped temporarily and reduced” value is given as 0 n; the “Diarrhea, action taken: Unknown” value is 0 n; the “Fatigue, action taken: Stopped temporarily and reduced” value came out at 0 n; the “Fatigue, action taken: Unknown” value worked out at 0 n. In data set [3], the “Hypertension, action taken: Stopped temporarily and reduced” value turned out to be 0 n; the “Hypertension, action taken: Unknown” value came out at 0 n; the “Nausea, action taken: Permanently discontinued” value is 0 n; the “Nausea, action taken: Stopped temporarily and reduced” value is reported as 0 n. Further, in data set [3], the “Nausea, action taken: Unknown” value was determined as 0 n; the “PPE, action taken: Stopped temporarily and reduced” value worked out at 0 n; the “PPE, action taken: Unknown” value was determined as 0 n. In addition, in data set [3] (setting [6]), the “Diarrhea, action taken: Not applicable” value was determined as 0 n; the “Fatigue, action taken: Not applicable” value is 0 n; the “Hypertension, action taken: Not applicable” value amounted to 0 n; the “Nausea, action taken: Not applicable” value is reported as 0 n. In data set [3] (setting [6]), the “PPE, action taken: Not applicable” value is given as 0 n.
Take `CNC(=O)c1cc(Oc2ccc(NC(=O)Nc3ccc(Cl)c(C(F)(F)F)c3)cc2)ccn1` [Sorafenib, sorafenib]: the half-life in data set [2] (in vivo) is 25 to 48 h.
On to `CCN(CC)CCNC(=O)c1c(C)[nH]c(/C=C2\C(=O)Nc3ccc(F)cc32)c1C` [Sunitinib, sunitinib], for which the half-life in data set [2] (in vivo) was 40 to 60 h.
For the compound `COc1cc2nccc(Oc3ccc(NC(=O)C4(C(=O)Nc5ccc(F)cc5)CC4)cc3)c2cc1OC` [cabozantinib], the half-life in data set [2] (in vivo) was roughly 99 h.
With `COc1cc2nccc(Oc3ccc(NC(=O)NC4CC4)c(Cl)c3)c2cc1C(N)=O` [lenvatinib], the half-life in data set [2] (in vivo) was roughly 28 h.
